Results from PMC10607100, “Anticancer and Antiphytopathogenic Activity of Fluorinated Isatins and Their Water-Soluble Hydrazone Derivatives” (International Journal of Molecular Sciences, 2023).

Assays:
M-HeLa = experiment: MTT cell viability test, M-HeLa; type: cell-based, human; settings: for IC50: Homo sapiens, M-HeLa, incubation time 24 h; for selectivity (SI) for M-HeLa: IC50 normal cells (WI38) / IC50 M-HeLa
Experimental: (§1) Human cell cultures of tumor origin—HeLa (cervical tumor), HuTu 80 (human duodenal adenocarcinoma), ChangLiver (human liver HeLa-like line), and normal cell line WI38, VA 13 subline 2RA is a diploid human cell strain composed of fibroblasts derived from healthy lung tissue provided by The Gamaleya National Center for Epidemiology and Microbiology, as well as the Institute of Cytology of the Russian Academy of Sciences. They were grown in a nutrient medium DMEM (PanEco, Moscow, Russia) and MEM (PanEco, Moscow, Russia), containing fetal bovine serum (10% by volume) (ThermoFisher Scientific, Paisley, UK), Glutamax (2 mM) (Gibco, Scotland, UK), and penicillin-streptomycin (1% by volume) (PanEco, Moscow, Russia). The cultivation was carried out at 37 °C in a humidified CO2 atmosphere (5%).
(§2) Cell viability was determined by the MTT test. Cells were seeded in a 96-well plate in the amount of 1 × 10^4 cells/200 µL of complete nutrient medium and cultured at 37 °C in CO2 (5%). After 24 h of incubation, various concentrations of test compounds in the range of 0.1 to 100 μM were added to the cell cultures, and then the cells were cultured under the same conditions for 24 and 72 h. For each concentration, the experiment was carried out in triplicate.
(§3) All compounds were dissolved in DMSO and then diluted with the medium to the required concentration. […] The DMSO was also added to the control wells in a volume of 1%. After the incubation time, MTT (3-(4,5-dimethylthiazol-2-yl)-2,5-diphenyltetrazolium bromide, 5 mg/mL) was added to each well, and plates were additionally incubated for 2 h (until the characteristic color appeared).
(§4) Using a plate analyzer (Cytation3, BioTech Instruments Inc., Winooski, VT, USA), the optical density was determined at 530 nm.
(§5) The IC50 parameter was calculated using the AAT Bioquest program.
(§6) The selectivity index (SI) is calculated as the ratio between the IC50 for normal cells and the IC50 for cancer cells.

HuTu 80 = experiment: MTT cell viability test, HuTu 80; type: cell-based, human; settings: for IC50: Homo sapiens, HuTu80, incubation time 24 h; for selectivity (SI) for HuTu 80: IC50 normal cells (WI38) / IC50 HuTu 80
Experimental: as §1, §2, §3, §4, §5, §6

Chang Liver = experiment: MTT cell viability test, Chang liver; type: cell-based; settings: Homo sapiens, incubation time 24 h
Experimental: as §1, §2, §3, §4, §5

WI38 = experiment: MTT cell viability test, WI38; type: cell-based, human; settings: for IC50: Homo sapiens, WI-38, incubation time 24 h
Experimental: as §1, §2, §3, §4, §5

HuTu 80 cells [1] = experiment: ROS production, CellROX Deep Red flow cytometry; type: cell-based, human
Experimental: ROS generation was investigated using a flow cytometry assay and the CellROX® Deep Red flow cytometry kit. For this, HuTu 80 cells were harvested at 2000 rpm for 5 min and then washed twice with ice-cold PBS, followed by resuspension in 0.1 mL of medium without FBS, to which was added 0.2 μL of CellROX® Deep Red and incubated at 37 °C for 30 min. After three times washing the cells and suspending them in PBS, the production of ROS in the cells was immediately monitored using a flow cytometer (Guava easyCyte, Merck, Rahway, NJ, USA).

platelet aggregation = experiment: Platelet aggregation, Born method; type: cell-based, human; settings: for reduction of the maximum platelet aggregation, on average: text summary for 3a and 3b
Experimental: The in vitro experiments were performed using the blood of healthy male donors aged 18-24 years (a total of 54 donors). This study was approved by the Ethics Committee of the Federal State Budgetary Educational Institution of Higher Education at the Bashkir State Medical University of the Ministry of Health of the Russian Federation (No. 2, dated 17 October 2012). Informed consent was obtained from all participants before blood sampling. The blood was collected from the cubital vein using the vacuum blood collection system BD Vacutainer® (Becton, Dickinson, and Company, Franklin Lakes, NJ, USA). […] The study of the effect on platelet aggregation was performed using the Born method using the aggregometer «[…], Moscow, Russia). The assessment of the antiplatelet activity of the studied compounds and reference preparations was started with a final concentration of 2 × 10^-3 mol/L. Adenosine diphosphate (ADP; 20 μg/mL) and collagen (5 mg/mL) manufactured by […] Company, Barnaul, Russia, were used as inducers of aggregation. The study on the anticoagulant activity was performed by standard recognized clotting tests using the optical two-channel automatic analyzer of blood coagulation, Solar […] SOLAR, Minsk, Belarus). The following parameters were studied: activated partial thromboplastin time (APTT), prothrombin time (PT), and fibrinogen concentrations according to the Clauss method. The determination of the anticoagulant activity of the studied compounds and reference preparation was performed at a concentration of 5 × 10^-4 g/mL using the reagents manufactured by […] Company (Barnaul, Russia). The results of the study were processed using the statistical package Statistica 10.0 (StatSoft Inc., Tulsa, OK, USA). The Shapiro-Wilk's test was used to check the normality of the [NT] distribution. The form of distribution of the data obtained differed from the normal one; therefore, non-parametric methods were used for further analysis. The data were presented as medians and 25 and 75 percentiles. An analysis of variance was conducted using the Kruskal-Wallis test.

HuTu 80 cells [2] = experiment: Apoptosis induction, annexin V/propidium iodide flow cytometry; type: cell-based, human; settings: 24 h; IC50 concentration of 40 μM
Experimental: HuTu 80 cells at 1 × 10^6 cells/well in a final volume of 2 mL were seeded into six-well plates. After 24 h of incubation, various concentrations of tested compounds were added to the wells. The cells were harvested at 2757 g for 5 min and then washed twice with ice-cold PBS, followed by resuspension in binding buffer. Next, the samples were incubated with 5 μL of annexin V-Alexa Fluor 647 (Sigma-Aldrich, Burlington, MA, USA) and 5 μL of propidium iodide for 15 min at room temperature in the dark. Finally, the cells were analyzed by flow cytometry (Guava easyCyte, Merck, Rahway, NJ, USA) within 1 h. The experiments were repeated three times.

HuTu 80 cells [3] = experiment: Mitochondrial membrane potential, JC-10 flow cytometry; type: cell-based, human; settings: 24 h; concentrations corresponding to IC50
Experimental: To analyze the effect of compounds on changes in the mitochondrial membrane potential, we performed flow cytometry using JC-10 fluorescent dye (in the Mitochondria Membrane Potential Kit). In normal cells (with high membrane potential), JC-10 accumulates in the mitochondrial matrix, where it forms aggregates with red fluorescence. However, in apoptotic cells, JC-10 diffuses out of mitochondria, converts to its monomeric form, and emits green fluorescence, which is recorded by a flow cytometer. Cells were harvested at 2757 g for 5 min and then washed twice with ice-cold PBS, followed by resuspension in JC-10 (10 µg/mL) and incubation at 37 °C for 10 min. Then, the cells were rinsed three times and suspended in PBS, and the JC-10 fluorescence was observed by flow cytometry (Guava easyCyte, Merck, Rahway, NJ, USA).

## O=C1C(=O)N(Cc2ccccc2F)c2ccc(F)cc21 [Compound 3a, 5-Fluoro-1-(2-fluorobenzyl)indoline-2,3-dione]
M-HeLa
  IC50: 74.6 ± 5.9 µM
HuTu 80
  IC50: 25.2 ± 1.9 µM
  selectivity (SI) for HuTu 80: 2.5
Chang Liver
  IC50: 53 ± 4.2 µM
WI38
  cytotoxicity against the healthy cell line WI38: low cytotoxicity
  IC50: 62 ± 2 µM
HuTu 80 cells [1]; 12.5 µM
  increase in ROS production relative to the control: 1.1 fold
HuTu 80 cells [1]; 25 µM
  increase in ROS production relative to the control: 7.1 times
Platelet aggregation
  lengthening of the lag-period relative to the control: more than 10%
  reduction of the maximum platelet aggregation, on average: ~12%

## O=C1C(=O)N(Cc2ccccc2Cl)c2ccc(F)cc21 [Compound 3b, 1-(2-Chlorobenzyl)-5-fluoroindoline-2,3-dione]
M-HeLa
  IC50: 32.1 ± 2.5 µM
  selectivity (SI) for M-HeLa: 1.8
M-HeLa; cell line not given
  cytotoxicity, times higher than the reference drug 5-FU: 2.0 times
HuTu 80
  IC50: 38.3 ± 3 µM
  selectivity (SI) for HuTu 80: 1.5
Chang Liver
  IC50: 71.5 ± 5.6 µM
WI38
  cytotoxicity against the healthy cell line WI38: low cytotoxicity
  IC50: 58.1 ± 6.6 µM
HuTu 80 cells [2]
  apoptosis-inducing activity: highest apoptosis-inducing activity
HuTu 80 cells [3]
  green fluorescence increased relative to the control: up to 55%
HuTu 80 cells [1]
  ROS production relative to the control: increased ROS production
Platelet aggregation
  lengthening of the lag-period relative to the control: more than 10%
  reduction of the maximum platelet aggregation, on average: ~12%

## O=C1C(=O)N(Cc2c(F)cccc2Cl)c2ccc(F)cc21 [Compound 3d, 1-(2-Chloro-6-fluorobenzyl)-5-fluoroindoline-2,3-dione]
M-HeLa
  IC50: 53.8 ± 4.3 µM
  selectivity (SI) for M-HeLa: 1.5
HuTu 80
  IC50: 31 ± 2.4 µM
  selectivity (SI) for HuTu 80: 2.5
Chang Liver
  IC50: > 100 µM
WI38
  cytotoxicity against the healthy cell line WI38: low cytotoxicity
  IC50: 78.3 ± 8 µM
HuTu 80 cells [3]
  green fluorescence increased relative to the control: up to 55%
HuTu 80 cells [1]
  ROS production relative to the control: increased ROS production

## O=c1[nH]cc(F)c(=O)[nH]1 [Compound 5-FU, 5-fluorouracil, reference compound]
M-HeLa
  IC50: 62 ± 4.9 µM
  selectivity (SI) for M-HeLa: ≤ 1
HuTu 80
  selectivity (SI) for HuTu 80: ≤ 1
Chang Liver
  IC50: 19 ± 1.7 µM
WI38
  IC50: 62 ± 4.2 µM
